This is an account of results in ChEMBL document CHEMBL1201862, “PubChem BioAssay data set” (2004).

A short description of test [1]: Fluorescence-based biochemical high throughput screening dose response assay to identify inhibitors of Crimean-Congo Hemorrhagic Fever (CCHF) viral ovarian tumor domain protease (vOTU): Pep-AMC substrate.
Test [2] is described as follows: Luminescence Cell-Based Dose Response HTS to Identify Inhibitors of 5'UTR Stem-Loop Driven Prion Protein mRNA Translation in H4 Neuroglioblastoma Cells. [Related pubchem assays: 1827 (Project Summary), 1813 (Primary HTS)]. The test is classed as functional.
Test [3] concerns the target T1, Replicative DNA helicase DnaB (Mycobacterium tuberculosis, UniProt P9WMR3).
T1 sequence (P9WMR3 whole entry): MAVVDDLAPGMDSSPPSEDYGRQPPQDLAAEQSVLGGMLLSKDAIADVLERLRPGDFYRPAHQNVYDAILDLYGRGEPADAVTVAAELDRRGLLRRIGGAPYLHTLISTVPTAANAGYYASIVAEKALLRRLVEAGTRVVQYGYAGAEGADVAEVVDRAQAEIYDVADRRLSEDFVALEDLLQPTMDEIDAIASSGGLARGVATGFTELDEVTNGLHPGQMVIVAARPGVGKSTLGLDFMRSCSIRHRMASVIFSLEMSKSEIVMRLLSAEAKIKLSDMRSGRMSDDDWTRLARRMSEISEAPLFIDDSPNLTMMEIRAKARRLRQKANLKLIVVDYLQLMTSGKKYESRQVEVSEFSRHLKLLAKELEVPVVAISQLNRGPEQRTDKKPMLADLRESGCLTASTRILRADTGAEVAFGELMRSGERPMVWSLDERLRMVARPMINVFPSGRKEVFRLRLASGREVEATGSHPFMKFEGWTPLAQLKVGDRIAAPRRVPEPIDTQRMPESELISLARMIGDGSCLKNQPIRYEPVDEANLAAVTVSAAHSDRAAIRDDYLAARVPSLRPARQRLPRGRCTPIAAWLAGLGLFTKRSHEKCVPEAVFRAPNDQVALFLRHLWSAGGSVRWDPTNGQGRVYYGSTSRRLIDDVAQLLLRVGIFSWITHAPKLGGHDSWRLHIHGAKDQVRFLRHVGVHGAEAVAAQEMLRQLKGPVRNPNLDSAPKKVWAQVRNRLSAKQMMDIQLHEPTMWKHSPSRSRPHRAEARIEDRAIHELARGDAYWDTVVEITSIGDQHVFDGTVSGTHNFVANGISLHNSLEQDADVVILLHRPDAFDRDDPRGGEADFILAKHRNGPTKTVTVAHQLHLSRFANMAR
Briefly: DnaB intein splicing inhibitors, dose response, biochemical, cell-free fluorescence (AID 449749). The test is classed as functional.

Test [4] in a line: inhibitors of intracellular T. cruzi replication, confirmation, NIH3T3 host cells, beta-gal luminescence (AID 2044).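 Further: intracellular parasites grown in NIH/3T3 mouse fibroblasts as host cells; luminescent beta-galactosidase reporter signal from transgenic T. cruzi replicating inside host cells; inhibitors lower the luminescence signal.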 The test is classed as functional, cell-based.
Test [5] addresses Dual specificity mitogen-activated protein kinase kinase 1 (Homo sapiens, UniProt Q02750). Briefly: Navigating the Kinome. Panel member name: MAP2K1. The test is classed as functional.
Test [6] has as its target Tyrosine-protein kinase JAK2 (Homo sapiens, UniProt O60674). The format is functional.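 Further: JAK2 tested as one member of a kinase panel.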
Test [7] concerns the target Protein kinase C zeta type (Homo sapiens, UniProt Q05513). The test is classed as functional.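 Further: measured as one member of a broad kinase profiling panel.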
The target of test [8] is Serine/threonine-protein kinase D2 (Homo sapiens, UniProt Q9BZL6). The test is classed as functional.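 Further: measured against PRKD2 as one member of a kinome-wide kinase profiling panel.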
Test [9] deals with Ribosomal protein S6 kinase beta-1 (Homo sapiens, UniProt P23443). The test is classed as functional.
Test [10] concerns the target Testis-specific serine/threonine-protein kinase 2 (Homo sapiens, UniProt Q96PF2). The format is functional.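 Further: part of the Navigating the Kinome panel, target entry STK22B.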
Test [11] concerns the target Activin receptor type-1 (Homo sapiens, UniProt Q04771). The test can be described thus: Navigating the Kinome. Panel member name: ACVR1. The test is classed as functional.
Test [12] has as its target MAP kinase-activated protein kinase 2 (Homo sapiens, UniProt P49137). The test is classed as functional.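 Further: measured as one member of a kinome-wide kinase panel.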
In test [13] the target is Mast/stem cell growth factor receptor Kit (Homo sapiens, UniProt P10721). The format is functional.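 Further: KIT entry within a kinase panel assay.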
Test [14] concerns the target Fibroblast growth factor receptor 1 (Homo sapiens, UniProt P11362). The test is classed as functional.
For test [15], the target named is MAP/microtubule affinity-regulating kinase 3 (Homo sapiens, UniProt P27448). The format is functional.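 Further: MARK3 affinity measured as one member of a kinome panel.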
The target in test [16] is Glycogen synthase kinase-3 alpha (Homo sapiens, UniProt P49840). The format is functional.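 Further: GSK3A result taken from a broad kinome-wide kinase panel.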
Test [17] concerns the target MAP kinase-activated protein kinase 3 (Homo sapiens, UniProt Q16644). The test is classed as functional.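 Further: value comes from a kinome-wide profiling panel in which MAPKAPK3 is one of the panel members.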
Test [18] addresses Serine/threonine-protein kinase Nek4 (Homo sapiens, UniProt P51957). The test is classed as functional.
Test [19] concerns the target cAMP-dependent protein kinase catalytic subunit PRKX (Homo sapiens, UniProt P51817). The format is functional.
Test [20] addresses RAC-alpha serine/threonine-protein kinase (Homo sapiens, UniProt P31749). The test is classed as functional.
Test [21] deals with Vascular endothelial growth factor receptor 3 (Homo sapiens, UniProt P35916). The test is classed as functional.
The target of test [22] is Tyrosine-protein kinase Fer (Homo sapiens, UniProt P16591). The test is classed as functional.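 Further: FER tested as one member of a kinome panel.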
In test [23] the target is Tyrosine-protein kinase Fyn (Homo sapiens, UniProt P06241). The format is functional.
For test [24], the target named is Homeodomain-interacting protein kinase 4 (Homo sapiens, UniProt Q8NE63). The test is classed as functional.
Test [25] concerns the target 3-phosphoinositide-dependent protein kinase 1 (Homo sapiens, UniProt O15530). The format is functional.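 Further: value comes from the Navigating the Kinome panel, PDPK1 member.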
In test [26] the target is Cyclin-dependent kinase 8 (Homo sapiens, UniProt P49336). Briefly: Navigating the Kinome. Panel member name: CDK8. The test is classed as functional.
Test [27] addresses Cyclin-dependent kinase 7 (Homo sapiens, UniProt P50613). The test is classed as functional.
Test [28] has as its target Glycogen synthase kinase-3 beta (Homo sapiens, UniProt P49841). The test is classed as functional.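 Further: value comes from a broad kinome profiling panel, with GSK3B as the panel member.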
Test [29] concerns the target Cyclin-dependent kinase 9 (Homo sapiens, UniProt P50750). The format is functional.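 Further: value from the CDK9 entry of a kinome-spanning kinase panel.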
Test [30] deals with Lymphokine-activated killer T-cell-originated protein kinase (Homo sapiens, UniProt Q96KB5). The test is classed as functional.
In test [31] the target is Mitogen-activated protein kinase kinase kinase kinase 4 (Homo sapiens, UniProt O95819). The test is classed as functional.
The target in test [32] is Dual specificity tyrosine-phosphorylation-regulated kinase 1A (Homo sapiens, UniProt Q13627). The test is classed as functional.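 Further: measured against DYRK1A as one member of a broad kinome profiling panel.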
Test [33] has as its target Leukocyte tyrosine kinase receptor (Homo sapiens, UniProt P29376). Briefly: Navigating the Kinome. Panel member name: LTK. The format is functional.

Molecules are shown by their SMILES. Activity calls are given as the source filed them. A value given as a limit tells only on which side of the number the result lay.

Protein kinase C zeta type, sequence (Q05513 whole entry): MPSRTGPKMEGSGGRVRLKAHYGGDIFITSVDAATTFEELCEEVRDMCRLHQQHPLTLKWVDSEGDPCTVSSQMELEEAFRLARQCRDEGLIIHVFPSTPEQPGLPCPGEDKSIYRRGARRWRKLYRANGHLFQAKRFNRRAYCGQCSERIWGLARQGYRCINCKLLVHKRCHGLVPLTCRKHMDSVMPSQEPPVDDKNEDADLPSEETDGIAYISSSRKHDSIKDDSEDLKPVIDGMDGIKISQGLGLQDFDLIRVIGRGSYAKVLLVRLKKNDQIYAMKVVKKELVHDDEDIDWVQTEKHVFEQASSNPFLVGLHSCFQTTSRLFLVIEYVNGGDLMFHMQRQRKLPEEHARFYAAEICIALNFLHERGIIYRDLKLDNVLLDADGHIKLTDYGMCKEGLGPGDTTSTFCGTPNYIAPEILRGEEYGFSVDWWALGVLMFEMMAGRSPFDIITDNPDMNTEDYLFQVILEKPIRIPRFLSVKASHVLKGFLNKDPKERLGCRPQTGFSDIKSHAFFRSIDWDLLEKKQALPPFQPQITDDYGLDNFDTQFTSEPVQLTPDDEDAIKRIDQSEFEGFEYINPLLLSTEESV
3-phosphoinositide-dependent protein kinase 1, sequence (O15530 whole entry): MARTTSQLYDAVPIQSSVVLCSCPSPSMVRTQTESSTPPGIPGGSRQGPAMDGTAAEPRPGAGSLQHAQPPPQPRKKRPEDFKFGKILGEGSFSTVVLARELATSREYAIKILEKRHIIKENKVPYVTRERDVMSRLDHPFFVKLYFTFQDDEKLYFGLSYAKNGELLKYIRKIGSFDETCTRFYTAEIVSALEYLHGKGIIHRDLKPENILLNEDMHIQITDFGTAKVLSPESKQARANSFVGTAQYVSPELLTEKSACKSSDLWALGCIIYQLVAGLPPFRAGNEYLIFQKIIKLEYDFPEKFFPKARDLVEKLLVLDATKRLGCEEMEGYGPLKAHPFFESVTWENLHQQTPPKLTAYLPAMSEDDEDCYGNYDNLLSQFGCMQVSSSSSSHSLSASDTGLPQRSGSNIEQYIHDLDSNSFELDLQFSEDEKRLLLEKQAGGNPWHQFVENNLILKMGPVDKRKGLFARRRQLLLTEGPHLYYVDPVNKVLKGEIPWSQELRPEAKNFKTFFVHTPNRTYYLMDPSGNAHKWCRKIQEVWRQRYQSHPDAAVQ
Tyrosine-protein kinase JAK2, sequence (O60674 whole entry): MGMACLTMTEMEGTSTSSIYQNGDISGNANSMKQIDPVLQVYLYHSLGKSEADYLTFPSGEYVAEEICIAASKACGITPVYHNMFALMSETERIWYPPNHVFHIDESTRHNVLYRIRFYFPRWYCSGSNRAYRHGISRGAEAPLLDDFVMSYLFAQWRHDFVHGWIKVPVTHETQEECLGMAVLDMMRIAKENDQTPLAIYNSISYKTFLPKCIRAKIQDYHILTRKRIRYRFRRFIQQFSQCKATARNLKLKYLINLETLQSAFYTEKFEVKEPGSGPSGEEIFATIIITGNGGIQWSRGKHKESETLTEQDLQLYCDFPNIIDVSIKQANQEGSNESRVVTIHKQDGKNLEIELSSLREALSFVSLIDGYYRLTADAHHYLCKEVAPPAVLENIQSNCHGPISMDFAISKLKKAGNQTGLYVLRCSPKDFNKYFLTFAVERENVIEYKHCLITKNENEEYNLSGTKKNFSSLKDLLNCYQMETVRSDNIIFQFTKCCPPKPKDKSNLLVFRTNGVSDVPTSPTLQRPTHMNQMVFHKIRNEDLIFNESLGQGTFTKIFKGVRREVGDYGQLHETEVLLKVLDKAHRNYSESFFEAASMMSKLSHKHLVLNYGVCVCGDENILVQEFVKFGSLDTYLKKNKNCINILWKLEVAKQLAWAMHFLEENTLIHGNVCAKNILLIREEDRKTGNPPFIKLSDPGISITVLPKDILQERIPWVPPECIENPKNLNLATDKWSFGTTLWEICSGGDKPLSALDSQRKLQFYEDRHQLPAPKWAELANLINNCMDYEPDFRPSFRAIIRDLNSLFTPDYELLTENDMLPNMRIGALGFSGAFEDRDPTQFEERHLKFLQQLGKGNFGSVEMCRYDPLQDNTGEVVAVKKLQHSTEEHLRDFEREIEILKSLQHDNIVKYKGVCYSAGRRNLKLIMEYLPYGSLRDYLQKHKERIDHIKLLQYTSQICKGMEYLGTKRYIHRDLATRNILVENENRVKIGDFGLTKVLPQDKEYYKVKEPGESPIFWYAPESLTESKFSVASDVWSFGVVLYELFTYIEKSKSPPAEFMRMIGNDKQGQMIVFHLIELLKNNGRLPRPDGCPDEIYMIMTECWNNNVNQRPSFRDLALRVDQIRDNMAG
Homeodomain-interacting protein kinase 4, sequence (Q8NE63 whole entry): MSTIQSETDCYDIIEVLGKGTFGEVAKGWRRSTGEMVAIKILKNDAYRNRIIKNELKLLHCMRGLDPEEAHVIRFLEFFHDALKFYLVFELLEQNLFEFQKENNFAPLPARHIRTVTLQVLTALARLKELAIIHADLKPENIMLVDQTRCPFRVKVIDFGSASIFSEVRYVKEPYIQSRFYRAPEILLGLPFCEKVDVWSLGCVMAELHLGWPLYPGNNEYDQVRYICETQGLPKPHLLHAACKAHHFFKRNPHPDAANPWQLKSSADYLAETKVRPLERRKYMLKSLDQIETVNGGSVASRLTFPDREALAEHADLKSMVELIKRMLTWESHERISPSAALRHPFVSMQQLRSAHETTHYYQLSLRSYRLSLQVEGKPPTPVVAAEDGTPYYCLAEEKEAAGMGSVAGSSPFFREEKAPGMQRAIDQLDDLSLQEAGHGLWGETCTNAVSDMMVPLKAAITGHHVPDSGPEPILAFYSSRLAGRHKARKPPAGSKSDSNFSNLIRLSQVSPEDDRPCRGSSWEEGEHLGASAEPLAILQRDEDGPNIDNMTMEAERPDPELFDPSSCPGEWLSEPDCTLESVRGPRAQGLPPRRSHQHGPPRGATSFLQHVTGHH
Fibroblast growth factor receptor 1, sequence (P11362 whole entry): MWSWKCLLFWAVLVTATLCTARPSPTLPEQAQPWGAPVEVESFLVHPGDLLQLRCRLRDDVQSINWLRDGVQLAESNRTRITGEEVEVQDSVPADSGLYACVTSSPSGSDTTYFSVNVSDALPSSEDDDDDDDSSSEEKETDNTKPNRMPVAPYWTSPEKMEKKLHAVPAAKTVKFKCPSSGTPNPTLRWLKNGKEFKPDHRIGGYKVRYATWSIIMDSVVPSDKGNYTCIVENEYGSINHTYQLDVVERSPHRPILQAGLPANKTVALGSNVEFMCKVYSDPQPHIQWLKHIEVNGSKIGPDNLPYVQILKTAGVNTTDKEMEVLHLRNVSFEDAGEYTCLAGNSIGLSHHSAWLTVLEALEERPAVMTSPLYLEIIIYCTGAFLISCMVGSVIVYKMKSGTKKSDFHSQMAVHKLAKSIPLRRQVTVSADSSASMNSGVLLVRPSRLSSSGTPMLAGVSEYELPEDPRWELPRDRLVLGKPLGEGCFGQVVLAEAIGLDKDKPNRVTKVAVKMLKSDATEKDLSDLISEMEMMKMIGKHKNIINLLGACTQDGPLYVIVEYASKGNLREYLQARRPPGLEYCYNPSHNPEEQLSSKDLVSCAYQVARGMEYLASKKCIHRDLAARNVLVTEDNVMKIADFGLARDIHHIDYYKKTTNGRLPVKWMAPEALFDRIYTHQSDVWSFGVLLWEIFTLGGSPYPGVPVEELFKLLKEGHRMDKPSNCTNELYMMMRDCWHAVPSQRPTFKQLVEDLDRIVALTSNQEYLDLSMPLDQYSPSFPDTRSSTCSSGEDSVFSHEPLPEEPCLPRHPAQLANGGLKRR
cAMP-dependent protein kinase catalytic subunit PRKX, sequence (P51817 whole entry): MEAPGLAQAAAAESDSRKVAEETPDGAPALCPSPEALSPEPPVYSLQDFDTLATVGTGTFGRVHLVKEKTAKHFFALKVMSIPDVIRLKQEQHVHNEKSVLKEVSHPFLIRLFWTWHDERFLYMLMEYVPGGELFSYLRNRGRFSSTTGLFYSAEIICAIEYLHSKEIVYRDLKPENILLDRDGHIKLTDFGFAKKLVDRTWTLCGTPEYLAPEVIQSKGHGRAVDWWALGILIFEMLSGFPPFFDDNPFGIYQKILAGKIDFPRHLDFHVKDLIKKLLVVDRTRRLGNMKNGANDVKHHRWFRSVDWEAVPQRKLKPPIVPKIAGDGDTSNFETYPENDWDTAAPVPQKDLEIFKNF
Dual specificity mitogen-activated protein kinase kinase 1, sequence (Q02750 whole entry): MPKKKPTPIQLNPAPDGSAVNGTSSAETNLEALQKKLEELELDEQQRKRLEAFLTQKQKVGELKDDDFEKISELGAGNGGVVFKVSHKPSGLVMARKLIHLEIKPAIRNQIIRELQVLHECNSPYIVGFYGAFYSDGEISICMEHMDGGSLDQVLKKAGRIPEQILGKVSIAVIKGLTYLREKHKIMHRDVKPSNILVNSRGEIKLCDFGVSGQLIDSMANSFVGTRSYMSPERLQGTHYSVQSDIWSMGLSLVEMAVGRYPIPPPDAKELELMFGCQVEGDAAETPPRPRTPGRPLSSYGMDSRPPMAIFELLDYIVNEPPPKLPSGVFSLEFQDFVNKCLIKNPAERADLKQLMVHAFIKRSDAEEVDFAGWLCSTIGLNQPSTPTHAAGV
Testis-specific serine/threonine-protein kinase 2, sequence (Q96PF2 whole entry): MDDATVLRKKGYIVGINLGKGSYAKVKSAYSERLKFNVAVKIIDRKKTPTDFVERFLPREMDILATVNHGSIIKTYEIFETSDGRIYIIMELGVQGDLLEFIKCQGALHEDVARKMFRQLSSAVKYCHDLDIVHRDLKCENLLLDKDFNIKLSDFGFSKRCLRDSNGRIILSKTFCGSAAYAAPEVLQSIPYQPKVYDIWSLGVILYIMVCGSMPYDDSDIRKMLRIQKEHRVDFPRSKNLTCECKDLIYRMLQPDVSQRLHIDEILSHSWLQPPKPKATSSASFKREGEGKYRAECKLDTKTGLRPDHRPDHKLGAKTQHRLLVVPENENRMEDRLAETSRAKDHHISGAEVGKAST

Turning to `CC(C)N(C(=O)Nc1ccc2nsnc2c1)C(C)C`, the concentration for half-maximal inhibition (IC50) in [1] is > 4.25 µM (active).
For `NS(=O)(=O)c1ccc(NC2=CC(=O)C(=O)c3ccccc32)cc1`, in test [2], the concentration for a half-maximal effect (EC50) was 24.4 µM (active). Besides, the half-maximal activity concentration (AC50) in test [3] is 1.84 µM (active).
For the molecule `CCC(=O)NC(c1ccccc1OC)c1ccc2cccnc2c1O` (stereo not drawn), in [4], the EC50 was 951 nM (active).
Turning to `Clc1cc(-c2c[nH]c3ncccc23)nc(NC2CCCCC2)n1`, the Ki was 200 nM (active) in [5]; > 2.51 µM (inactive) in test [6]; > 7.94 µM (inactive) in [7]; 200 nM (active) in test [8]; 2.51 µM (active) in [9]; > 1.58 µM (inactive) in test [10]. Moreover, the Ki in test [11] is > 3.98 µM (inactive); in [12] it was > 7.94 µM (inactive); in test [13] it was > 1.26 µM (inactive); in test [14], > 3.98 µM (inactive); in test [15], 158 nM (active); in [16] it was 794 nM (active). The Ki in [17] is > 10 µM (inactive); in test [18] it was > 6.31 µM (inactive); in test [19], > 1.26 µM (inactive); in [20], > 7.94 µM (inactive); in [21] it was 251 nM (active); in test [22], 398 nM (active). Moreover, the Ki in [23] was > 794 nM (inactive); in test [24] it was 1.26 µM (active); in test [25], > 3.98 µM (inactive); in test [26], 3.98 nM (active); in test [27], > 6.31 µM (inactive); in test [28], > 1 µM (inactive). For the same molecule, the Ki in test [29] was > 794 nM (inactive); in test [30], > 10 µM (inactive); in test [31], 126 nM (active); in [32], 20 nM (active); in test [33], > 2.51 µM (inactive).

One may read the IC50 as the midpoint of a concentration-inhibition curve. By EC50 is commonly meant the midpoint of the concentration-response curve. What is called AC50 is the concentration giving half of the maximal activity seen. By Ki is commonly meant the equilibrium dissociation constant of an inhibitor or competing ligand from its target.
